Reference: ChEMBL document CHEMBL3351663, “Discovery of acylurea isosteres of 2-acylaminothiadiazole in the azaxanthene series of glucocorticoid receptor agonists” (Bioorg Med Chem Lett, 2014)

Key:
Glucocorticoid receptor [1] = target: T1, Glucocorticoid receptor (Homo sapiens, UniProt P04150); assay: Binding affinity to glucocorticoid receptor (unknown origin) by fluorescence polarization assay
T1 sequence (P04150 whole entry): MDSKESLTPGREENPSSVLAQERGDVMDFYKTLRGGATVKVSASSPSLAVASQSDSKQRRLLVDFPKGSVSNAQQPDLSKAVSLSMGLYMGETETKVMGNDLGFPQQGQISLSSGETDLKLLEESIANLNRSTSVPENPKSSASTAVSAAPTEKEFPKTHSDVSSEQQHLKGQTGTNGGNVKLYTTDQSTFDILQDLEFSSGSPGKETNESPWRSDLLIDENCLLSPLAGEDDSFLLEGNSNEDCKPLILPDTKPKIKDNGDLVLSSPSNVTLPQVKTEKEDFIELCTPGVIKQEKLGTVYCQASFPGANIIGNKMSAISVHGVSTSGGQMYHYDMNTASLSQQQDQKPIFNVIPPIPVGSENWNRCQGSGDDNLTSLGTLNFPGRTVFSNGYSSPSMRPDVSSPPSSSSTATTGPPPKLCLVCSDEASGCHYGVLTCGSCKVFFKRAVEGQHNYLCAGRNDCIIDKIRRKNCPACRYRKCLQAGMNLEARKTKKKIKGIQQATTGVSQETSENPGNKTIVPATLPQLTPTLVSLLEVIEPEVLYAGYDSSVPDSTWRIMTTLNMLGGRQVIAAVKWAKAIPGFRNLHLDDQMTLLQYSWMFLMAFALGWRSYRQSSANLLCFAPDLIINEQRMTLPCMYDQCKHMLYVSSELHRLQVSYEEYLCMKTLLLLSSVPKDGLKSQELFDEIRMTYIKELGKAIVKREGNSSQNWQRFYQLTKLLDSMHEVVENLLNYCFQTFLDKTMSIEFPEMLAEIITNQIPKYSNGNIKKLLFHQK

Glucocorticoid receptor [2] = target: T1, Glucocorticoid receptor; assay: Agonist activity at glucocorticoid receptor in human HeLa cells assessed as NP-1 transactivation by luciferase reporter gene assay; type: cell-based
Glucocorticoid receptor [3] = target: T1, Glucocorticoid receptor; parameters: species or system Blood
Glucocorticoid receptor [4] = target: T1, Glucocorticoid receptor; assay: Agonist activity at glucocorticoid receptor in human A549 cells assessed as AP-1 transrepression by luciferase reporter gene assay; type: cell-based
Cytochrome P450 2C19 = Cytochrome P450 2C19 (Homo sapiens, UniProt P33261); assay: Inhibition of CYP2C19 (unknown origin); type: ADME
Chain of Cytochrome P450 2C19 (P33261 whole entry): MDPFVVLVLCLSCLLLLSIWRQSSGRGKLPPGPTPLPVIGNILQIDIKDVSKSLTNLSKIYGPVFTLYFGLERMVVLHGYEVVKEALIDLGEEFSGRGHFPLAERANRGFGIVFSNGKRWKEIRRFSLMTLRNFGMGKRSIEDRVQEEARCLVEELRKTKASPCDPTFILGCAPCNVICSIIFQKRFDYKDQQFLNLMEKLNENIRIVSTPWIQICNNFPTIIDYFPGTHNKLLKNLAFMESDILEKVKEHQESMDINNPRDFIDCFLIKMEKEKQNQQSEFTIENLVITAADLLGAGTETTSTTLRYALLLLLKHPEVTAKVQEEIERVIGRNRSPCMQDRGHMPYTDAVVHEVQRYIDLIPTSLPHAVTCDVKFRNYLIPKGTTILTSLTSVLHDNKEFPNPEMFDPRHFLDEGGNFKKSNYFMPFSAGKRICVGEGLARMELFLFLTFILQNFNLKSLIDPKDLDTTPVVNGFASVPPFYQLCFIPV

Androgen receptor = target: T2, Androgen receptor (Homo sapiens, UniProt P10275); assay: Binding affinity to androgen receptor (unknown origin)
T2 sequence (P10275 whole entry): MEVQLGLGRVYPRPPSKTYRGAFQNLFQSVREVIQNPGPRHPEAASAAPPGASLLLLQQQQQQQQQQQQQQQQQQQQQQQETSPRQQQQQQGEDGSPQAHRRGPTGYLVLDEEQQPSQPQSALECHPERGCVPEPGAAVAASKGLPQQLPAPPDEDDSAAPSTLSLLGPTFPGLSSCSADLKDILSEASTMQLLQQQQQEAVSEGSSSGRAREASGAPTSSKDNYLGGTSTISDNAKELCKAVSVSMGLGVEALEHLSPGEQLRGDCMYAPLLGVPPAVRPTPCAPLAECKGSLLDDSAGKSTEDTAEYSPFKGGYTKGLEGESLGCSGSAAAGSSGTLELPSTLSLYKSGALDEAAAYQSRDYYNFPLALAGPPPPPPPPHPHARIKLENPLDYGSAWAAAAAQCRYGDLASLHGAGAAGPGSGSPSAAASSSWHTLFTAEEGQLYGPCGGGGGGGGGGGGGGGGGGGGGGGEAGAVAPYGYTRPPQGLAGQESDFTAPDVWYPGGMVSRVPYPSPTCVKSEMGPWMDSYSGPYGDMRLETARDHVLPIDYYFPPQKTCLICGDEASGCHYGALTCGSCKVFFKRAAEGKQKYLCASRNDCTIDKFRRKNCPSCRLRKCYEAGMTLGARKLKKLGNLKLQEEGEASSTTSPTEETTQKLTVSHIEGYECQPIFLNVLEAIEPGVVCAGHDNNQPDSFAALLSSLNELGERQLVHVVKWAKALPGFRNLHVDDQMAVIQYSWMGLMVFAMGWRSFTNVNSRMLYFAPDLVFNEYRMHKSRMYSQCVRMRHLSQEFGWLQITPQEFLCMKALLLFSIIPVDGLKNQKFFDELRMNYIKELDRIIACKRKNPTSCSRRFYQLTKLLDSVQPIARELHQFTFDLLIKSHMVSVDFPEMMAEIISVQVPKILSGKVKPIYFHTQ

Cytochrome P450 2C9 = Cytochrome P450 2C9 (Homo sapiens, UniProt P11712); assay: Inhibition of CYP2C9 (unknown origin); type: ADME
Chain of Cytochrome P450 2C9 (P11712 whole entry): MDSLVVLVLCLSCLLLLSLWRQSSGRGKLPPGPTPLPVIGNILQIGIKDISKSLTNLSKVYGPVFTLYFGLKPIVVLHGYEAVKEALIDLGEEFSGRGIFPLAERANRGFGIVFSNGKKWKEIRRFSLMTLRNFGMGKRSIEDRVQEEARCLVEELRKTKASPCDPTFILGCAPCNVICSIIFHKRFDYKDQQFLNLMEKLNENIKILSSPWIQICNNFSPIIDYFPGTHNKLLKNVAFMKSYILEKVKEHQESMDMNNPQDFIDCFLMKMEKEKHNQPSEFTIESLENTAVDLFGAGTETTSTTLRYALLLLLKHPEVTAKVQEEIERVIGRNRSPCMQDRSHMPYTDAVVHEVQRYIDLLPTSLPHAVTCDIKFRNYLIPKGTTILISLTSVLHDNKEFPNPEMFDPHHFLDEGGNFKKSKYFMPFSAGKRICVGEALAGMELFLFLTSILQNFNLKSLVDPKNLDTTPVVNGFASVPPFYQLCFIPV

Estrogen receptor = target: T3, Estrogen receptor (Homo sapiens, UniProt P03372); assay: Binding affinity to estrogen receptor-alpha (unknown origin)
T3 sequence (P03372 whole entry): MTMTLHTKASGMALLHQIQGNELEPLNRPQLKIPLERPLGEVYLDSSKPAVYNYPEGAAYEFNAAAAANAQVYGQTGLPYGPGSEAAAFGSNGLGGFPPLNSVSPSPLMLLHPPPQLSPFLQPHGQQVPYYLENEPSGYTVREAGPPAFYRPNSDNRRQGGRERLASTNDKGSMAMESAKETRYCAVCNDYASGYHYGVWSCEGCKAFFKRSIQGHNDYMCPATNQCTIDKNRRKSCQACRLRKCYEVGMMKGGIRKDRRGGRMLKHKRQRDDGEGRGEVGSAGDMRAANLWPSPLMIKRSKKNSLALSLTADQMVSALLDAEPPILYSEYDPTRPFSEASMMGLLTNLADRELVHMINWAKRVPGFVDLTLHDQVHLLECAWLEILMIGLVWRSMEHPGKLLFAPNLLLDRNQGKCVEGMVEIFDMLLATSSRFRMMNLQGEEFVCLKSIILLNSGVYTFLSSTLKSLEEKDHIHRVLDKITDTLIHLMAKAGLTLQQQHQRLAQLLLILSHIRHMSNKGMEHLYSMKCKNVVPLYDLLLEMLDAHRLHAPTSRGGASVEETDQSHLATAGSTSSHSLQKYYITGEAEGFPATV

Glucocorticoid receptor [5] = target: T1, Glucocorticoid receptor; assay: Agonist activity at glucocorticoid receptor in human A549 cells assessed as E-selectin transrepression by luciferase reporter gene assay; type: cell-based
Liver microsome [6] = assay: Metabolic stability in rat liver microsomes assessed as compound remaining
Liver = assay: Metabolic stability in mouse liver microsomes assessed as compound remaining
Liver microsome [7] = assay: Metabolic stability in human liver microsomes assessed as compound remaining

Row | Structure (SMILES) | Ki (Glucocorticoid receptor [1]) [µM] | EC50 (Glucocorticoid receptor [2]) [µM] | EC50 (Glucocorticoid receptor [3]) [µM] | EC50 (Glucocorticoid receptor [4]) [µM] | IC50 (Cytochrome P450 2C19) [µM] | Ki (Androgen receptor) [µM] | IC50 (Cytochrome P450 2C9) [µM] | Ki (Estrogen receptor) [µM] | EC50 (Glucocorticoid receptor [5]) [µM] | Stability (Liver microsome [6]) [%] | Stability (Liver) [%] | Stability (Liver microsome [7]) [%]
1 | CC(C)(C(=O)Nc1nncs1)[C@@H]1c2ccc(-c3ccc(C(=O)N4CCOCC4)cc3)nc2Oc2c(F)cccc21 | 0.0016 | 0.0108 | 0.0215 | 0.0021 | 1.3 | > 50 | 1 | > 75 | – | – | – | –
2 | CC(C)(C(=O)NC(N)=O)[C@@H]1c2ccc(-c3ccc(C(=O)N4CCOCC4)cc3)nc2Oc2c(F)cccc21 | 0.0021 | 0.0055 | 0.0203 | 0.0021 | 11 | > 50 | 14 | > 75 | 0.0012 | 90 | 80 | 83
